Values quoted from earlier work as cited in paper PMC12500691 (Frontiers in Cellular and Infection Microbiology, 2025).

Tested on: NETosis
Conditions: cited from earlier work

CC[C@H](C)[C@H](NC(=O)[C@H](CCCCN)NC(=O)[C@H](CCC(=O)O)NC(=O)[C@H](CCCCN)NC(=O)[C@H](CO)NC(=O)[C@H](CCCCN)NC(=O)[C@H](CCCNC(=N)N)NC(=O)[C@H](Cc1ccccc1)NC(=O)[C@H](Cc1ccccc1)NC(=O)[C@H](CC(=O)O)NC(=O)CNC(=O)[C@H](CC(C)C)NC(=O)[C@@H](N)CC(C)C)C(=O)NCC(=O)N[C@@H](CCCCN)C(=O)N[C@@H](CCC(=O)O)C(=O)N[C@@H](Cc1ccccc1)C(=O)N[C@@H](CCCCN)C(=O)N[C@@H](CCCNC(=N)N)C(=O)N[C@H](C(=O)N[C@H](C(=O)N[C@@H](CCC(N)=O)C(=O)N[C@@H](CCCNC(=N)N)C(=O)N[C@H](C(=O)N[C@@H](CCCCN)C(=O)N[C@@H](CC(=O)O)C(=O)N[C@@H](Cc1ccccc1)C(=O)N[C@@H](CC(C)C)C(=O)N[C@@H](CCCNC(=N)N)C(=O)N[C@@H](CC(N)=O)C(=O)N[C@@H](CC(C)C)C(=O)N[C@H](C(=O)N1CCC[C@H]1C(=O)N[C@@H](CCCNC(=N)N)C(=O)N[C@H](C(=O)N[C@@H](CCC(=O)O)C(=O)N[C@@H](CO)C(=O)O)[C@@H](C)O)C(C)C)[C@@H](C)CC)C(C)C)[C@@H](C)CC [LL-37]
effect on NETosis: promote NETosis
